From PubChem BioAssay AID1963847 (Molecular Pharmacology Branch, DTP, NCI, 2024)

Tested on: 415267-285-R-J2-PDC complex spheroid viability
Assay: Anticancer human tumor 415267-285-R-J2-PDC patient-derived breast carcinoma cell line growth inhibition [POLQ]
Settings: for IC50: curve of first compound; for viability, T/C: stronger effect = lower value
Procedure, shortened: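 Three-cell-type spheroids modelling solid tumor plus stroma served as the readout system; POL inhibitors were tested individually and in combination, concentration ranges set by clinical Cmax where known.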

[1] = second compound 0.0316 µM, first compound 0.0316 µM
[2] = second compound 0.0316 µM, first compound 0.1 µM
[3] = second compound 0.0316 µM, first compound 0.316 µM
[4] = second compound 0.0316 µM, first compound 1 µM
[5] = second compound 0.1 µM, first compound 0.0316 µM
[6] = second compound 0.1 µM, first compound 0.1 µM
[7] = second compound 0.1 µM, first compound 0.316 µM
[8] = second compound 0.1 µM, first compound 1 µM
[9] = second compound 0.316 µM, first compound 0.0316 µM
[10] = second compound 0.316 µM, first compound 0.1 µM
[11] = second compound 0.316 µM, first compound 0.316 µM
[12] = second compound 0.316 µM, first compound 1 µM
[13] = second compound 1 µM, first compound 0.0316 µM
[14] = second compound 1 µM, first compound 0.1 µM
[15] = second compound 1 µM, first compound 0.316 µM
[16] = second compound 1 µM, first compound 1 µM
[17] = second compound 3.16 µM, first compound 0.0316 µM
[18] = second compound 3.16 µM, first compound 0.1 µM
[19] = second compound 3.16 µM, first compound 0.316 µM
[20] = second compound 3.16 µM, first compound 1 µM
[21] = second compound 10 µM, first compound 0.0316 µM
[22] = second compound 10 µM, first compound 0.1 µM
[23] = second compound 10 µM, first compound 0.316 µM
[24] = second compound 10 µM, first compound 1 µM
[25] = second compound 0.0316 µM, first compound 0.00316 µM
[26] = second compound 0.0316 µM, first compound 0.01 µM
[27] = second compound 0.1 µM, first compound 0.00316 µM
[28] = second compound 0.1 µM, first compound 0.01 µM
[29] = second compound 0.316 µM, first compound 0.00316 µM
[30] = second compound 0.316 µM, first compound 0.01 µM
[31] = second compound 1 µM, first compound 0.00316 µM
[32] = second compound 1 µM, first compound 0.01 µM
[33] = second compound 3.16 µM, first compound 0.00316 µM
[34] = second compound 3.16 µM, first compound 0.01 µM
[35] = second compound 10 µM, first compound 0.00316 µM
[36] = second compound 10 µM, first compound 0.01 µM
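Also: spheroids exposed to compounds for one week before readout.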
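For viability, T/C in this document: luminescence used as stand-in measure of viable cells; 100% = DMSO vehicle control viability.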

CCCS(=O)(=O)Nc1ccc(F)c(C(=O)c2c[nH]c3ncc(-c4ccc(Cl)cc4)cc23)c1F + Nc1ccc(C#CCN(C(=O)Cc2ncc(C(F)(F)F)cc2C(F)(F)F)c2ccc(F)cc2)nn1
IC50 (second compound 0.0316 µM): > 10000 nM | IC50 (second compound 0.1 µM): > 10000 nM | IC50 (second compound 0.316 µM): > 10000 nM | IC50 (second compound 1 µM): > 10000 nM | IC50 (second compound 3.16 µM): > 10000 nM | IC50 (second compound 10 µM): > 10000 nM | viability, T/C [1]: 92% | viability, T/C [2]: 111% | viability, T/C [3]: 102% | viability, T/C [4]: 90.8% | viability, T/C (second compound 0.0316 µM, first compound 3.16 µM): 90.6% | viability, T/C (second compound 0.0316 µM, first compound 10 µM): 89.6% | viability, T/C [5]: 117% | viability, T/C [6]: 105% | viability, T/C [7]: 91.1% | viability, T/C [8]: 107% | viability, T/C (second compound 0.1 µM, first compound 3.16 µM): 109% | viability, T/C (second compound 0.1 µM, first compound 10 µM): 90.3% | viability, T/C [9]: 114% | viability, T/C [10]: 109% | viability, T/C [11]: 108% | viability, T/C [12]: 95.2% | viability, T/C (second compound 0.316 µM, first compound 3.16 µM): 96.2% | viability, T/C (second compound 0.316 µM, first compound 10 µM): 89.2% | viability, T/C [13]: 110% | viability, T/C [14]: 107% | viability, T/C [15]: 105% | viability, T/C [16]: 100% | viability, T/C (second compound 1 µM, first compound 3.16 µM): 105% | viability, T/C (second compound 1 µM, first compound 10 µM): 82.3% | viability, T/C [17]: 107% | viability, T/C [18]: 112% | viability, T/C [19]: 107% | viability, T/C [20]: 104% | viability, T/C (second compound 3.16 µM, first compound 3.16 µM): 94.2% | viability, T/C (second compound 3.16 µM, first compound 10 µM): 92.9% | viability, T/C [21]: 95.5% | viability, T/C [22]: 105% | viability, T/C [23]: 104% | viability, T/C [24]: 98.4% | viability, T/C (second compound 10 µM, first compound 3.16 µM): 104% | viability, T/C (second compound 10 µM, first compound 10 µM): 90.8%

Cn1ncnc1[C@H]1c2n[nH]c(=O)c3cc(F)cc(c23)N[C@@H]1c1ccc(F)cc1 + Cc1cccc(N(C)C(=O)C2C(O)CCN2c2nc(C)cc(C(F)(F)F)c2C#N)c1
IC50 (second compound 0.0316 µM): > 100 nM | IC50 (second compound 0.1 µM): > 100 nM | IC50 (second compound 0.316 µM): > 100 nM | IC50 (second compound 1 µM): > 100 nM | IC50 (second compound 3.16 µM): > 100 nM | IC50 (second compound 10 µM): > 100 nM | viability, T/C (second compound 0.0316 µM, first compound 0.000316 µM): 92.9% | viability, T/C (second compound 0.0316 µM, first compound 0.001 µM): 103% | viability, T/C [25]: 106% | viability, T/C [26]: 96.3% | viability, T/C [1]: 104% | viability, T/C [2]: 96.5% | viability, T/C (second compound 0.1 µM, first compound 0.000316 µM): 90.8% | viability, T/C (second compound 0.1 µM, first compound 0.001 µM): 93.9% | viability, T/C [27]: 114% | viability, T/C [28]: 109% | viability, T/C [5]: 99.9% | viability, T/C [6]: 97.9% | viability, T/C (second compound 0.316 µM, first compound 0.000316 µM): 97.1% | viability, T/C (second compound 0.316 µM, first compound 0.001 µM): 90.4% | viability, T/C [29]: 95.7% | viability, T/C [30]: 96.8% | viability, T/C [9]: 95.3% | viability, T/C [10]: 87.2% | viability, T/C (second compound 1 µM, first compound 0.000316 µM): 103% | viability, T/C (second compound 1 µM, first compound 0.001 µM): 95.6% | viability, T/C [31]: 93.9% | viability, T/C [32]: 101% | viability, T/C [13]: 98.3% | viability, T/C [14]: 101% | viability, T/C (second compound 3.16 µM, first compound 0.000316 µM): 92.9% | viability, T/C (second compound 3.16 µM, first compound 0.001 µM): 97.1% | viability, T/C [33]: 103% | viability, T/C [34]: 103% | viability, T/C [17]: 99.8% | viability, T/C [18]: 87.7% | viability, T/C (second compound 10 µM, first compound 0.000316 µM): 93.3% | viability, T/C (second compound 10 µM, first compound 0.001 µM): 97.9% | viability, T/C [35]: 110% | viability, T/C [36]: 93% | viability, T/C [21]: 91% | viability, T/C [22]: 90.5%

C=CCn1c(=O)c2cnc(Nc3ccc(N4CCN(C)CC4)cc3)nc2n1-c1cccc(C(C)(C)O)n1 + COC1C(OC(N)=O)C(O)C(Oc2ccc3c(O)c(NC(=O)c4ccc(O)c(CC=C(C)C)c4)c(=O)oc3c2C)OC1(C)C
IC50 (second compound 0.0316 µM): 347 nM | IC50 (second compound 0.1 µM): 269 nM | IC50 (second compound 0.316 µM): 262 nM | IC50 (second compound 1 µM): 269 nM | IC50 (second compound 3.16 µM): 249 nM | IC50 (second compound 10 µM): 267 nM | viability, T/C [25]: 106% | viability, T/C [26]: 96.1% | viability, T/C [1]: 105% | viability, T/C [2]: 101% | viability, T/C [3]: 53.7% | viability, T/C [4]: 7.91% | viability, T/C [27]: 96% | viability, T/C [28]: 95.3% | viability, T/C [5]: 101% | viability, T/C [6]: 99.1% | viability, T/C [7]: 42.1% | viability, T/C [8]: 7.89% | viability, T/C [29]: 114% | viability, T/C [30]: 110% | viability, T/C [9]: 100% | viability, T/C [10]: 116% | viability, T/C [11]: 38.1% | viability, T/C [12]: 7.25% | viability, T/C [31]: 105% | viability, T/C [32]: 119% | viability, T/C [13]: 95.8% | viability, T/C [14]: 89.9% | viability, T/C [15]: 42.9% | viability, T/C [16]: 7.39% | viability, T/C [33]: 111% | viability, T/C [34]: 101% | viability, T/C [17]: 103% | viability, T/C [18]: 95.9% | viability, T/C [19]: 38.1% | viability, T/C [20]: 8.1% | viability, T/C [35]: 112% | viability, T/C [36]: 93.9% | viability, T/C [21]: 106% | viability, T/C [22]: 97.9% | viability, T/C [23]: 41.7% | viability, T/C [24]: 9.2%
